# Experiments:
# Assay in all cases: fluorescence quenching titration of antibody tryptophan
# [1] = target: IgE; assay type: binding
# [2] = target: penicillin G specific IgG (IgG^Pen, monoclonal antibody clone P2B9); assay type: binding, Mus musculus
# [3] = target: anti-dansyl IgE (IgE^dansyl, clone 27-74); assay type: binding
molecule,measurement,setting,value
"O=C(O)Cc1ccc2ccccc2c1 [Napht, 2-naphteleneacetic acid]",Kd,[1],1800 ± 300 nM
Benzylpenicilloyl,Kd,[2],20000 ± 4000 nM
dansyl,Kd,[3],29.9 ± 10 nM

# Source: publication PMC6823631 (Journal of immunology (Baltimore, Md. : 1950), 2019)
